Key:
[1] = target: T1, biphenyl hydrolase-like enzyme (BPHL) (Homo sapiens, UniProt Q86WA6); type: biochemical
T1 sequence (Q86WA6 38-291): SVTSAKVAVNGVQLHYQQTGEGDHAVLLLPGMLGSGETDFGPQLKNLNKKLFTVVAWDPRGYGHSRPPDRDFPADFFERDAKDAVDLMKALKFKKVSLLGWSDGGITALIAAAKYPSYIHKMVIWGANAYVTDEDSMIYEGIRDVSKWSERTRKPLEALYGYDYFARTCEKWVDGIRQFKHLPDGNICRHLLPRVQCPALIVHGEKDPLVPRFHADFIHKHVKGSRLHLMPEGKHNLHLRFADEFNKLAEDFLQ

HPEPT1 [2] = target: T2, HPEPT1 (Homo sapiens, UniProt P46059); conditions: for Uptake (hPepT1): HeLa cells overexpressing HPEPT1, 50 micromolar, pH 6.0, 45 minutes; for hPepT1/Control: ratio of uptake in hPepT1 cells versus control cells
T2 sequence (P46059 1-708): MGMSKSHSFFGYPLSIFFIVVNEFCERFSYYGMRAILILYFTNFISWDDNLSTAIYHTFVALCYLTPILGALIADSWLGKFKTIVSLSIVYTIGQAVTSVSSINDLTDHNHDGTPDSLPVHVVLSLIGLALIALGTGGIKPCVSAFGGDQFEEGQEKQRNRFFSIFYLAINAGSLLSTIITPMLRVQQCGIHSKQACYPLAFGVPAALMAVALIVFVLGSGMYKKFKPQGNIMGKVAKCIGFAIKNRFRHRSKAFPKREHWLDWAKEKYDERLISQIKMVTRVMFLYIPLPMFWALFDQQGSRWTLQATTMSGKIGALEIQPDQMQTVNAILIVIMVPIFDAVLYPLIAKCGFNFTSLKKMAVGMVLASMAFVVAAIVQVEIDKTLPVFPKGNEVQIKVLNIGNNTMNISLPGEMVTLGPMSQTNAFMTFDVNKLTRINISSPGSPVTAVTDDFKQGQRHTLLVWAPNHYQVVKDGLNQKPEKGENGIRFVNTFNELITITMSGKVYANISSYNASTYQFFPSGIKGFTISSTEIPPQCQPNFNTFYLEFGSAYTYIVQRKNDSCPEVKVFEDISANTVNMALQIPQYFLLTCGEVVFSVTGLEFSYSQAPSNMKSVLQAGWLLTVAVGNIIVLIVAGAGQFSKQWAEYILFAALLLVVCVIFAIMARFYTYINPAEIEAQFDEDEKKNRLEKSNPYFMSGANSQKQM

[3] = not given; remark: listed apart in the source
HPEPT1 [4] = target: T2, HPEPT1; assay: Inhibition of radiolabelled Gly-Sar uptake in DC5 cells overexpressing HPEPT1; type: cell-based; design: expressed in transfected cells; host or cells: HeLa cells overexpressing hPEPT1 (called 'HPEPT1 infected cells'); conditions: inhibition of Gly-Sar uptake, DC5 cells overexpressing HPEPT1, 10 min, 37° C.; read-out: DC5 IC50
Description: Amino acid prodrugs are tested for their interaction with the dipeptide transporter, HPEPT1, using tissue culture cells that are engineered to overexpress HPEPT1. In this example, the cells that overexpress HPEPT1, termed DC5, are a human meduloblastoma cell line that is stably transfected with a eukaryotic expression vector encoding HPEPT1. […] DC5 cells are plated at a density of 12,000 cells/well in 96-well tissue culture plates and allowed to grow for 2 days. The cells are washed once with 200 microliters of uptake buffer and aspirated. The plates are cooled to 4° C. and 25 ul of uptake buffer containing 125 nanomoles Gly-Sar (at a specific activity of 1 microcurie/micromole) is added. The uptake buffer also contains the prodrugs to be tested at concentrations ranging from 10 micromolar to 20 millimolar. The assay is initiated by placing the plate in a shaking water bath at 37° C. and is terminated after 10 min by rapid washing with multiple changes of 4° C. phosphate buffered saline (PBS). The radioactive Gly-Sar peptide that is transported by the hpept1 is extracted from the cell layer with 200 ul of a one to one mixture of methanol and water and is counted in 4 ml of CytoScint ES™ scintillation cocktail (ICN). The data are plotted as % Gly-Sar uptake of control (no competitive substrate) versus the competitive substrate concentration. […] Typically, values that are below 10 mM indicate that the drug interacts with transporter.

[5] = not given; remark: listed apart in the source
vaccinia virus = assay: microbe, parasite or virus in culture; type: cell-based; conditions: 2′-deoxycoformycin alone at 1 micromolar
[6] = target: T3, human dipeptide transporter, hPept1 (Homo sapiens, UniProt P46059)
T3 sequence (P46059 1-708): T2 sequence (P46059 1-708)

Structure (SMILES) | % of Control (VACV) [1] [%] | t1/2 Caco-2 cell homogenates [min] | Uptake (hPepT1) (HPEPT1 [2]) [nmole/mg/45 min] | hPepT1/Control (HPEPT1 [2]) | t1/2 Human plasma [3] [min] | IC50 (HPEPT1 [4]) [µM] | t1/2 Buffer pH 7.4 [5] [min] | effect on virus replication (vaccinia virus) | hPepT1/Control [6]
NCCCC[C@H](N)C(=O)OC[C@H]1O[C@@H](n2cc(F)c(=O)[nH]c2=O)C[C@@H]1O [5′ lysyl monoester Floxuridine] | 8.1 |  |  |  |  |  |  |  | 
CC[C@H](C)[C@H](N)C(=O)O[C@@H]1[C@@H](CO)O[C@@H](n2ccc(N)nc2=O)C1(F)F [3′-O-L-isoleucyl gemcitabine] |  | 10.6 ± 0.3 | 1.03 ± 0.11 | 1.09 | 8.0 ± 0.1 | 2180 | 66.0 ± 0.21 |  | 
CC(C)[C@H](N)C(=O)O[C@@H]1[C@@H](CO)O[C@@H](n2ccc(N)nc2=O)C1(F)F [3′-O-L-valyl Gemcitabine] |  | 5.0 ± 0.1 | 1.12 ± 0.07 | 1.11 | 5.4 ± 0.1 | 3690 | 64.0 ± 1.4 |  | 
OC[C@H]1O[C@@H](n2cnc3c2N=CNC[C@H]3O)C[C@@H]1O [2′-deoxycoformycin, reference compound] |  |  |  |  |  |  |  | no effect on virus replication | 
NC(CC(=O)O)C(=O)OC1CC(n2cc(F)c(=O)[nH]c2=O)OC1CO (centres unmarked) [3′-O-aspartyl-Floxuridine] | 2.0 |  |  |  |  | 10500 |  |  | 
NCCCC[C@H](N)C(=O)O[C@H]1C[C@H](n2cc(F)c(=O)[nH]c2=O)O[C@@H]1CO [3′ lysyl monoester Floxuridine] | 7.3 |  |  |  |  |  |  |  | 
N[C@@H](Cc1ccccc1)C(=O)OC[C@H]1O[C@@H](n2cc(F)c(=O)[nH]c2=O)C[C@@H]1O [5′-O-phenylalanyl-Floxuridine] | 52.8 |  | 1.58 ± 0.20 | 12.34 |  | 3700 |  |  | 
NCCCCC(N)C(=O)OCC1OC(n2cc(F)c(=O)[nH]c2=O)CC1OC(=O)C(N)CCCCN (centres unmarked) [3′,5′ lysyl diester Floxuridine] | 0.0 |  |  |  |  |  |  |  | 
NC(CC(=O)O)C(=O)OCC1OC(n2cc(F)c(=O)[nH]c2=O)CC1OC(=O)C(N)CC(=O)O (centres unmarked) [3′,5′-di-O-aspartyl-Floxuridine] | 0.0 |  |  |  |  | 9550 |  |  | 
CC(C)[C@H](N)C(=O)OC[C@H]1O[C@@H](n2ccc(N)nc2=O)C(F)(F)[C@@H]1O [5′-O-L-valyl Gemcitabine] |  | 7.1 ± 0.6 | 2.14 ± 0.05 | 11.25 | 56.4 ± 2.9 | 700 | 416.0 ± 8.5 |  | 
CC(C)C(N)C(=O)OC[C@H]1O[C@@H](n2cc(F)c(=O)[nH]c2=O)C[C@@H]1OC(=O)C(N)C(C)C (some centres unmarked) [3′,5′-di-O-valyl-Floxuridine] | 1.7 |  | 2.78 ± 0.37 | 5.18 |  | 1600 |  |  | 
CC(C)[C@H](N)C(=O)OC[C@H]1O[C@@H](n2cc(F)c(=O)[nH]c2=O)C[C@@H]1O [5′-O-valyl-Floxuridine] | 91.1 |  | 3.42 ± 0.09 | 19.24 |  | 1170 |  |  | 
CC(C)[C@H](N)C(=O)O[C@H]1C[C@H](n2cc(F)c(=O)[nH]c2=O)O[C@@H]1CO [3′-O-valyl-Floxuridine] | 3.3 |  | 1.35 ± 0.13 | 1.03 |  | 980 |  |  | 
NC(Cc1ccccc1)C(=O)O[C@H]1C[C@H](n2cc(F)c(=O)[nH]c2=O)O[C@@H]1CO (some centres unmarked) [3′-O-phenylalanyl-Floxuridine] | 24.4 |  | 0.83 ± 0.19 | 2.56 |  | 3480 |  |  | 
NC(CC(=O)O)C(=O)OCC1OC(n2cc(F)c(=O)[nH]c2=O)CC1O (centres unmarked) [5′-O-aspartyl-Floxuridine] | 2.3 |  |  |  |  | 8300 |  |  | 
CC(C)[C@H](N)C(=O)OC[C@H]1O[C@@H](n2ccc(N)nc2=O)C(F)(F)[C@@H]1OC(=O)[C@@H](N)C(C)C [3′,5′-di-O-L-valyl Gemcitabine] |  | 0.9 ± 0.0 | 1.76 ± 0.09 | 1.15 | 2.0 ± 0.1 | 1720 | 55.0 ± 2.7 |  | 
CC[C@H](C)[C@H](N)C(=O)OC[C@H]1O[C@@H](n2ccc(N)nc2=O)C(F)(F)[C@@H]1OC(=O)[C@@H](N)[C@@H](C)CC [3′,5′-di-O-L-isoleucyl gemcitabine] |  | 2.1 ± 0.0 | 1.16 ± 0.13 | 1.06 | 2.64 ± 0.0 | 820 | 61.0 ± 0.5 |  | 
C[C@H](N)C(=O)NCC(=O)OC[C@H]1O[C@@H](n2cnc3c(N)ncnc32)[C@@H](O)[C@@H]1O [5′-O-L-alagly Ara A] |  |  |  |  |  |  |  |  | 1.48
N[C@@H](Cc1ccccc1)C(=O)OC[C@H]1O[C@@H](n2cc(F)c(=O)[nH]c2=O)C[C@@H]1OC(=O)[C@@H](N)Cc1ccccc1 [3′,5′-di-O-phenylalanyl-Floxuridine] | 8.9 |  | 2.96 ± 0.13 | 9.53 |  | 2780 |  |  | 
CC[C@H](C)[C@H](N)C(=O)OC[C@H]1O[C@@H](n2ccc(N)nc2=O)C(F)(F)[C@@H]1O [5′-O-L-isoleucyl gemcitabine] |  | 75.3 ± 2.8 | 1.22 ± 0.05 | 5.64 | 99.2 ± 1.6 | 610 | 452.0 ± 9.6 |  | 

From patent US20070167353A1, “PRODRUG COMPOSITION” (priority 2003, published 2007)
